This assay deals with T1, Nox4 (Homo sapiens, UniProt Q9NPH5).
T1 construct: expressed in transfected cells
T1 sequence (Q9NPH5 1-578): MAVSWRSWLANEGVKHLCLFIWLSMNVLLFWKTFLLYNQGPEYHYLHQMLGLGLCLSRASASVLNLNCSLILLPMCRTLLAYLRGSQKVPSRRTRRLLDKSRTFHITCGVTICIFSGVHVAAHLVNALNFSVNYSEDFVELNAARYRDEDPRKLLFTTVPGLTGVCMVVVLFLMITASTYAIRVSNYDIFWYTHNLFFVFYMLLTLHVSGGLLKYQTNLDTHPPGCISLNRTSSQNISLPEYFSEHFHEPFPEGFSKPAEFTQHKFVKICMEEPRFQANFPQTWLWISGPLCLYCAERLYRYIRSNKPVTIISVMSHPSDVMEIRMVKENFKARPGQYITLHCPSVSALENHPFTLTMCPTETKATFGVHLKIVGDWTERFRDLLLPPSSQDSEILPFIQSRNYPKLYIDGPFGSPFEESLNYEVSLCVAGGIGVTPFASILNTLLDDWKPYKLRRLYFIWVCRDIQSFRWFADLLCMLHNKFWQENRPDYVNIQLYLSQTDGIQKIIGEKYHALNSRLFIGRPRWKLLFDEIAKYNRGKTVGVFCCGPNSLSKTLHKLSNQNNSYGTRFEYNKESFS
T1 sequence (P13498 1-195 partner): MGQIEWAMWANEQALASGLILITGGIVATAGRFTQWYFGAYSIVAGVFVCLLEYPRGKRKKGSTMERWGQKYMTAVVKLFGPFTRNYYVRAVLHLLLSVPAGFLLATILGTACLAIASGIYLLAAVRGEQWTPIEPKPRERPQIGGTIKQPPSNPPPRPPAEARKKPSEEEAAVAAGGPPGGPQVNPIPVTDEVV
The assay can be described thus: Inhibition of Nox4-dependent H2O2 production in HEK/Nox4 cells, Amplex Red assay. In kind it is cell-based. The note with it: 1 h, HEK/Nox4 cells, DMSO vehicle = 1.000, n = 3-10, read-out: H2O2 production relative to vehicle control, Mean; for remaining activity at 1 µM: 1 μM final concentration; for remaining activity at 5 µM: 5 μM final concentration; for remaining activity at 10 µM: 10 μM final concentration. Here is the method:
A high-throughput screening (HTS) assay was established for Nox4 inhibition, utilizing HEK293 cells that stably over-express Nox4 (HEK/Nox4 cells), which generate high levels of H2O2(Cheng G et al, Gene: 2001, p. 131-140). Over 30,000 compounds have been screened and medicinal chemistry efforts have led to the synthesis of numerous analogs and the identification of a chemically distinct series of selective Nox4 inhibitors. […] IC-50 was evaluated for UANox048 (FIG. 1B).
HEK cells stably transfected to overexpress Nox4 were treated with varying concentrations of test compounds, DPI (all-Nox inhibitor positive control), or DMSO (vehicle control) and incubated for 1 h (FIG. 1). (FIG. 1A) H2O2 presence was evaluated by Amplex Red assay. […] Values represent means±SEM; n=4. P values were calculated by student's two-tailed t test. *p<0.05, **p<0.01, *** p<0.001.

Consider `CCN(CC)S(=O)(=O)NCC(C)N1CCc2cc(-c3cccc(OC)c3)ccc21` (stereo not drawn) [UANOX036, N-(2-(5-(3-methoxyphenyl)indolin-1-yl)propyl)-N,N-diethyl-1-sulfonamide], for which the remaining activity at 1 µM is 102%, the remaining activity at 5 µM was found to be 83.2% and the remaining activity at 10 µM came out at 74.7%.

For `CC(CNS(=O)(=O)N1CCN(C)CC1)N1CCc2ccccc21` (stereo not drawn) [UANOX037], the remaining activity at 1 µM amounted to 97.2%, the remaining activity at 5 µM came to 79.3% and the remaining activity at 10 µM came to 77.3%.

Regarding `CCN(CC)S(=O)(=O)Nc1ccc(N2CCc3ccccc32)cc1` [UANOX038, N—(N,N-diethylaminosulfonyl)-4-(indolin-1-yl)aniline], the remaining activity at 1 µM is 92.5%, the remaining activity at 5 µM came out at 80% and the remaining activity at 10 µM amounted to 63.5%.

As to `CC(CNS(=O)(=O)c1ccc(OC(F)(F)F)cc1)N1CCc2ccccc21` (stereo not drawn) [UANOX049, N-(2-(indolin-1-yl)propyl)-4-(trifluoromethoxy)benzenesulfonamide], the remaining activity at 1 µM was 87.1%, the remaining activity at 5 µM was determined as 78.4% and the remaining activity at 10 µM turned out to be 71.4%.

On to `COc1ccc(-c2nc(C(=O)NCC(C)N3CCc4ccccc43)cs2)cc1` (stereo not drawn) [UANOX054, N-(2-(indolin-1-yl)propyl)-2-(4-(methoxy)phenyl)thiazole-4-carboxamide], for which the remaining activity at 1 µM was 90.2%, the remaining activity at 5 µM amounted to 87.6% and the remaining activity at 10 µM was 82.4%.

With `CC(CNC(=O)c1csc(-c2ccccc2)n1)N1CCc2ccccc21` (stereo not drawn) [UANOX055, N-(2-(indolin-1-yl)propyl)-2-phenylthiazole-4-carboxamide], the remaining activity at 1 µM was 90.2%, the remaining activity at 5 µM came out at 90.8% and the remaining activity at 10 µM was found to be 86.8%.

For the compound `CC(CNC(=O)c1csc(-c2ccc(C(F)(F)F)cc2)n1)N1CCc2ccccc21` (stereo not drawn) [UANOX056, N-(2-(indolin-1-yl)propyl)-2-(4-(trifluoromethyl)phenyl)thiazole-4-carboxamide], the remaining activity at 1 µM was determined as 95.9%, the remaining activity at 5 µM was determined as 88.4% and the remaining activity at 10 µM came to 83.4%.

For `O=S(=O)(c1ccc(OC(F)(F)F)cc1)N1CCN(CCN2CCc3ccccc32)CC1` [UANOX062, 1-(2-(4-((4-(trifluoromethoxy)phenyl)sulfonyl)piperazin-1-yl)ethyl)indoline], the remaining activity at 1 µM was found to be 88.7%, the remaining activity at 5 µM is 75.8% and the remaining activity at 10 µM was found to be 66.4%.

Regarding `CCN(CC)S(=O)(=O)N1CCN(CCN2CCc3ccccc32)CC1` [UANOX063, N,N-diethyl-4-(2-(indolin-1-yl)ethyl)piperazine-1-sulfonamide], the remaining activity at 1 µM was 90.2%, the remaining activity at 5 µM is 71.9% and the remaining activity at 10 µM is 66.5%.

For `O=S(=O)(c1ccc(F)cc1)N1CCN(CCN2CCc3ccccc32)CC1` [UANOX064, 1-(2-(4-((4-fluorophenyl)sulfonyl)piperazin-1-yl)ethyl)indoline], the remaining activity at 1 µM amounted to 86.3%, the remaining activity at 5 µM turned out to be 75.7% and the remaining activity at 10 µM was 72.4%.

Turning to `CCN(CC)C(=O)N1CCN(CCN2CCc3ccccc32)CC1` [UANOX066], the remaining activity at 1 µM was found to be 95.3%, the remaining activity at 5 µM came to 72.2% and the remaining activity at 10 µM stood at 73.1%.

Consider `Fc1ccccc1CN1CCN(CCN2CCc3ccccc32)CC1` [UANOX067, 1-(2-(4-(2-fluorobenzyl)piperazin-1-yl)ethyl)indoline], for which the remaining activity at 1 µM came out at 93.9%, the remaining activity at 5 µM amounted to 91.2% and the remaining activity at 10 µM stood at 85.1%.

For the compound `CC(CNS(=O)(=O)c1ccc(Oc2ccc(C(F)(F)F)cn2)cc1)N1CCc2ccccc21` (stereo not drawn) [UANOX070, N-(2-(indolin-1-yl)propyl)-4-((5-(trifluoromethyl)pyridin-2-yl)oxy)benzenesulfonamide], the remaining activity at 1 µM is 91.4%, the remaining activity at 5 µM worked out at 77.9% and the remaining activity at 10 µM was determined as 69.3%.

`CC(CNS(=O)(=O)c1ccc(Oc2ccccc2)cc1)N1CCc2ccccc21` (stereo not drawn) [UANOX071, N-(2-(indolin-1-yl)propyl)-4-phenoxybenzenesulfonamide]: the remaining activity at 1 µM stood at 90.8%, the remaining activity at 5 µM came to 85.6% and the remaining activity at 10 µM worked out at 77%.

Take `CC(CNS(=O)(=O)c1ccc(C#N)cc1)N1CCc2ccccc21` (stereo not drawn) [UANOX073]: the remaining activity at 1 µM was 94.2%, the remaining activity at 5 µM turned out to be 75.9% and the remaining activity at 10 µM amounted to 74.4%.

For the compound `O=S(=O)(NCCN1CCc2ccccc21)c1ccc(C(F)(F)F)cc1` [UANOX075, 4-trifluoromethyl-N-(2-(indolin-1-yl)ethyl)benzenesulfonamide], the remaining activity at 1 µM was 82.3%, the remaining activity at 5 µM is 72.1% and the remaining activity at 10 µM came out at 67.7%.

As for `O=S(=O)(NCCN1CCc2ccccc21)c1ccc(OC(F)(F)F)cc1` [UANOX076, 4-trifluoromethoxy-N-(2-(indolin-1-yl)ethyl)benzenesulfonamide], the remaining activity at 1 µM was determined as 83.2%, the remaining activity at 5 µM came to 72% and the remaining activity at 10 µM stood at 66.2%.

Regarding `O=S(=O)(NCCN1CCc2ccccc21)c1ccc(Oc2ccccc2)cc1` [UANOX079, N-(2-(indolin-1-yl)ethyl)-4-phenoxybenzenesulfonamide], the remaining activity at 1 µM was found to be 89.6%, the remaining activity at 5 µM is 65.1% and the remaining activity at 10 µM worked out at 58.4%.

Regarding `O=S(=O)(NCCN1CCc2ccccc21)c1ccc(Oc2ccc(C(F)(F)F)cn2)cc1` [UANOX080, N-(2-(indolin-1-yl)ethyl)-4-((5-(trifluoromethyl)pyridin-2-yl)oxy)benzenesulfonamide], the remaining activity at 1 µM was 85.5%, the remaining activity at 5 µM is 60.1% and the remaining activity at 10 µM was found to be 49.1%.

On to `O=S(=O)(NCCN1CCc2ccccc21)c1ccc(F)c(F)c1` [UANOX081, 3,4-difluoro-N-(2-(indolin-1-yl)ethyl)benzenesulfonamide], for which the remaining activity at 1 µM amounted to 88.8%, the remaining activity at 5 µM amounted to 67% and the remaining activity at 10 µM is 55.8%.

As for `N#Cc1ccc(S(=O)(=O)NCCN2CCc3ccccc32)cc1` [UANOX082, 4-cyano-N-(2-(indolin-1-yl)ethyl)benzenesulfonamide], the remaining activity at 1 µM is 90.8%, the remaining activity at 5 µM was determined as 70.7% and the remaining activity at 10 µM worked out at 60.6%.

Regarding `CCN(CC)S(=O)(=O)NCC(C)(C)N1CCc2ccccc21` [UANOX083, N—(N,N-diethylaminosulfonyl)-2-(indolin-1-yl)-2-methylpropane-1-amine], the remaining activity at 1 µM was 82.3%, the remaining activity at 5 µM is 73% and the remaining activity at 10 µM was determined as 66.5%.

For `CC(C)(CNS(=O)(=O)c1ccc(C(F)(F)F)cc1)N1CCc2ccccc21` [UANOX084, N-(2-(indolin-1-yl)-2-methylpropyl)-4-(trifluoromethyl)benzenesulfonamide], the remaining activity at 1 µM was determined as 90.3%, the remaining activity at 5 µM amounted to 77.5% and the remaining activity at 10 µM was determined as 67.5%.

For the origin of these results see US10654802B2, “Indoline derivatives and method for using and producing the same” (ARIZONA BOARD OF REGENTS ON BEHALF OF THE UNIVERSITY OF …, priority 2016, dated 2020).
